Measured values reported in article PMC7764991, “Chronic Plasma Exposure to Kinase Inhibitors in Patients with Oncogene-Addicted Non-Small Cell Lung Cancer” (Cancers, 2020).

How the values were obtained:
[1] = Table S2; ref supplementary refs 9-18, per drug; cited from earlier work
[2] = cited from earlier work; for Proposed target for TDM, Cmin: Table S1, plasma trough level, ref supplementary refs 1-11, per drug; for Target value of residual plasma concentration defining 'optimal concentration': recommended for TDM
[3] = Residual plasma concentration of kinase inhibitors by UPLC-MS/MS in NSCLC patients, classed optimal or suboptimal
Method: Patients with advanced NSCLC harboring oncogenic drivers, such as an EGFR-mutation, BRAF^V600E-mutation, ALK-fusion, or ROS1-fusion, treated with KI therapy for at least three months were eligible. […] KI plasma concentrations were evaluated in blood samples collected during therapy, and at the time of clinical response or relapse. Chronic plasma exposure was defined as at least three months of KI therapy. Clinical and pathological data were extracted from electronic medical records. Radiological assessments were performed every 8 or 12 weeks per Response Evaluation Criteria in Solid Tumors (RECIST) v1.1 and per the treating physician’s discretion.
Residual plasma concentrations of drugs were measured in blood samples using ultra-performance liquid chromatography coupled with tandem mass spectrometry validated methods. A residual estimate based on pharmacokinetic and population pharmacokinetic analysis parameters (Table S2) was made for samples not collected at the time of the residual sampling.
Precise measurement of trough concentrations is challenging in routine practice, due to the constraints of the logistics of blood collection at a precise time and the fact that the timing of administration varies from patient to patient. We defined three situations according to the dosing time with respect to the last dose: Optimal, evaluable, and non-interpretable.
• Optimal: The optimal concentration corresponds to the true residual plasma concentration at a steady state, in the blood collection performed immediately before the next administration. • Evaluable: The residual plasma concentration is estimated by an extrapolation method from known pharmacokinetic parameters (distribution volume, half-life, clearance) and from data obtained in population pharmacokinetic models. This estimate of standard trough concentration (Cmin, std) is only possible when blood samples were collected at steady state or during the terminal elimination phase of the drug, since in this phase, the elimination rate is linear. • - C (min, std) = C(t) * 0.5 ^ (Delta (t)/t1/2) • - C (min, std) = C(t) * exp (k(e) x Delta (t))
• 3. Not interpretable: Extrapolation is not feasible for samples taken during the plasma peak period.

[4] = cited from earlier work
[5] = studies of KI concentrations for other cancers; cited from earlier work
[6] = design: method as in PMID 22038662; conditions: hepatocellular carcinoma patients, plasma measured every 15 days; cited from earlier work
[7] = samples after at least three months of KI, % of the optimal group (n = 25)
[8] = samples after at least three months of KI, % of the suboptimal group (n = 26)

Structure (SMILES): C[C@@H](Oc1cc(-c2cnn(C3CCNCC3)c2)cnc1N)c1c(Cl)ccc(F)c1Cl [Crizotinib, crizotinib]
- Bioavailability [1]: 43%
- Distribution volume [1]: 1772 L
- Hepatic elimination [1]: 63%
- Metabolic pathway [1]: CYP3A4
- Tmax [1]: 4 to 6 h
- Proposed target for TDM, Cmin [2]: ≥ 235 ng/mL
- Target value of residual plasma concentration defining 'optimal concentration' [2]: > 235 ng/mL
- Samples with optimal concentration [3, 7]: 2 (8%) No. (%)
- Samples with suboptimal concentration [3, 8]: 5 (19.5%) No. (%)
- Interaction with proton pump inhibitors [4]: not relevant

Structure (SMILES): CC(C)(C)c1nc(-c2cccc(NS(=O)(=O)c3c(F)cccc3F)c2F)c(-c2ccnc(N)n2)s1 [Dabrafenib, dabrafenib]
- Distribution volume [1]: 46 L
- Half-life [1]: 8 h
- Hepatic elimination [1]: 73%
- Metabolic pathway [1]: CYP2C8, 3A4
- Proposed target for TDM, Cmin [2]: ≥ 96.1 ng/mL
- Target value of residual plasma concentration defining 'optimal concentration' [2]: > 96.1 ng/mL
- Samples with optimal concentration [3, 7]: 2 (8%) No. (%)
- Samples with suboptimal concentration [3, 8]: 3 (11.5%) No. (%)
- Interaction with proton pump inhibitors [4]: not relevant

Structure (SMILES): C#Cc1cccc(Nc2ncnc3cc(OCCOC)c(OCCOC)cc23)c1 [Erlotinib, erlotinib]
- Suboptimal concentration rate [5]: 11%
- Bioavailability [1]: 59%
- Distribution volume [1]: 232 L
- Half-life [1]: 36.2 h
- Hepatic elimination [1]: 90%
- Proposed target for TDM, Cmin [2]: ≥ 500 ng/mL
- Target value of residual plasma concentration defining 'optimal concentration' [2]: > 500 ng/mL
- Samples with optimal concentration ([3]; human, in vivo): 7 (28%) No. (%)
- Samples with suboptimal concentration ([3]; human, in vivo): 6 (23%) No. (%)
- Effect of cigarette smoke on plasmatic exposure ([4]; cigarette smoke induces CYP1A1): significantly decreases
- Interaction with proton pump inhibitors [4]: decreasing their bioavailability and the plasmatic exposure

Structure (SMILES): COc1cc2ncnc(Nc3ccc(F)c(Cl)c3)c2cc1OCCCN1CCOCC1 [Gefitinib, gefitinib]
- Bioavailability [1]: 59%
- Half-life [1]: 41 h
- Tmax [1]: 3 to 7 h
- Proposed target for TDM, Cmin [2]: ≥ 200 ng/mL
- Target value of residual plasma concentration defining 'optimal concentration' [2]: > 200 ng/mL
- Samples with optimal concentration ([3]; human, in vivo): 8 (32%) No. (%)
- Samples with suboptimal concentration ([3]; human, in vivo): 3 (11.5%) No. (%)

Structure (SMILES): C=CC(=O)Nc1cc(Nc2nccc(-c3cn(C)c4ccccc34)n2)c(OC)cc1N(C)CCN(C)C [Osimertinib, osimertinib]
- Bioavailability [1]: 70%
- Half-life [1]: 44 h
- Tmax [1]: 6 h
- Proposed target for TDM, Cmin [2]: ≥ 166 ng/mL
- Target value of residual plasma concentration defining 'optimal concentration' [2]: > 166 ng/mL
- Samples with optimal concentration ([3]; human, in vivo): 4 (16%) No. (%)
- Samples with suboptimal concentration ([3]; human, in vivo): 6 (23%) No. (%)

Structure (SMILES): CC(=O)Nc1cccc(-n2c(=O)n(C3CC3)c(=O)c3c(Nc4ccc(I)cc4F)n(C)c(=O)c(C)c32)c1 [Trametinib, trametinib]
- Half-life [1]: 127 h
- Hepatic elimination [1]: 80%
- Metabolic pathway [1]: Deacetylation
- Proposed target for TDM, Cmin [2]: ≥ 10.6 ng/mL
- Target value of residual plasma concentration defining 'optimal concentration' [2]: > 10.6 ng/mL
- Samples with optimal concentration ([3]; human, in vivo): 2 (8%) No. (%)
- Samples with suboptimal concentration ([3]; human, in vivo): 3 (11.5%) No. (%)
- Interaction with proton pump inhibitors [4]: not relevant

Structure (SMILES): CNC(=O)c1cc(Oc2ccc(NC(=O)Nc3ccc(Cl)c(C(F)(F)F)c3)cc2)ccn1 [sorafenib]
- Exposure after three months of treatment compared with one month [6]: lower than after one month of treatment

Structure (SMILES): CCN(CC)CCNC(=O)c1c(C)[nH]c(/C=C2\C(=O)Nc3ccc(F)cc32)c1C [sunitinib]
- Suboptimal concentration rate [5]: 49%
